Source: the supplement of paper PMC5412046
Where a name gives a salt, the structure may show the parent alone.

Tests used:
SB.mhdgc-1 = assay: AC50 for growth inhibition (viability) (log10 M); higher = less potent; conditions: SB.mhdgc-1 (hereditary c.1380delA CDH1 gastric cancer)
Method in brief: (§1)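 Gastric cancer cells derived from patients with hereditary or sporadic disease were seeded at 500 cells in 5 μL medium per 1536 well. A pintool delivered 23 nL of compound in DMSO, as 11 threefold dilutions from a final 46 μM. After 48 h, CellTiter-Glo was added for 30 min at room temperature and luminescence was read on a ViewLux. The log half-maximal activity concentration was taken from a four-parameter fit of viability normalised to DMSO, using only high-quality curve classes.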

SB.msgc-1 = assay: as above; conditions: SB.msgc-1 (sporadic gastric cancer)
Method in brief: as §1

SMILES | AC50 for growth inhibition (log10 M) (SB.mhdgc-1) | AC50 for growth inhibition (log10 M) (SB.msgc-1)
C=CCO/N=C(/C[C@H]1O[C@@H]2O[C@]3(C)CC[C@H]4[C@H](C)CC[C@@H]([C@H]1C)[C@@]24OO3)[C@H]1O[C@@H]2O[C@]3(C)CC[C@H]4[C@H](C)CC[C@@H]([C@H]1C)[C@@]24OO3 [BTM-2C-dimer allyl oxime] | -6.88 | -6.58
Cc1cccc2c1CC[C@H](CN1CCC(c3c(Cl)cccc3Cl)CC1)C[C@@H]2O | -4.73 | -4.78
O=C(Nc1ncc(-c2cc(C(F)F)nn2-c2c(Cl)cccc2Cl)s1)C1CC1 [BMS-3] | -6.13 | -6.18
Clc1ccc(C2(c3ccc(-c4cn[nH]c4)cc3)CCNCC2)cc1 [AT-7867] | -4.88 | -4.73
CCC[C@H](NC(=O)/C(C#N)=C/c1cccc(Br)n1)c1ccccc1 [Degrasyn] | -5.58 | -5.43
COc1cc(C)c(Sc2cnc(NC(=O)c3ccc(CNC(C)C(C)(C)C)cc3)s2)cc1C(=O)N1CCN(C(C)=O)CC1 (stereo unspecified) | -4.98 | -4.98
CC(C)(O)c1cc2nc(-c3cnc(N)nc3)nc(N3CCOCC3)c2s1 [GNE-493] | -6.98 | -6.88
CC#C[C@]1(O)CC[C@H]2[C@@H]/3CCC/4=C/C(=O)CCC4=C3[C@H](C[C@]12C)C5=CC=C(C=C5)N(C)C [Mifepristone] | -7.23 | -6.63
C[C@@H]1CC[C@@]2(CC[C@]3(C)\C(=C/C[C@@H]4[C@@]5(C)CC[C@H](O)C(C)(C)[C@@H]5CC[C@@]34C)[C@@H]2[C@H]1C)C(O)=O [Ursolic acid] | -4.67 | -4.47
CCOC(=O)\C1=C\[C@]2(CC)CCCN3CCC4=C([C@H]23)[N]1C5=C4C=CC=C5 [Vinpocetine] | -4.93 | -4.63
Cc1ccc(C)c(OCCCC(C)(C)C(=O)O)c1 [Gemfibrozil] | -4.78 | -5.13
CC(=O)N(C)C1(c2ccccc2)CCN(CCC[C@]2(c3ccc(Cl)c(Cl)c3)CCCN(C(=O)c3ccccc3)C2)CC1 [Osanetant] | -4.98 | -4.78
O=C1c2c(O)ccc(O)c2C(=O)c2c(NCCNCCO)ccc(NCCNCCO)c21 [Mitoxantrone] | -7.13 | -5.88
CCN(CC)CCCCNc1ncc2c(n1)N(C)C(=O)N(c1c(Cl)c(OC)cc(OC)c1Cl)C2 | -4.78 | -4.63
COc1ccc(-c2ccc3cc(C(=O)O)ccc3c2)cc1C12CC3CC(CC(C3)C1)C2 [Adapalene] | -5.28 | -5.23
C[C@]12CC[C@H]3[C@@H](C\C=C/4C[C@@H](O)CC[C@]34C)[C@@H]1CCC2=O [Dehydroepiandrosterone] | -5.78 | -4.78
COc1cc2nccc(Oc3ccc(NC(=O)Nc4cc(C)on4)c(Cl)c3)c2cc1OC [Tivozanib] | -5.28 | -5.58
CCNC(=O)Nc1ccc(-c2nc3c(c(N4CCOC[C@@H]4C)n2)CCN(C2COC2)C3)cc1 [GDC-0349] | -5.28 | -4.83
CC(O)(C#Cc1ccc2c(c1)N(c1nc(N)ncc1Cl)CC2)c1nccs1 (stereo unspecified) | -4.73 | -4.88
C[C@]12CC[C@@H]3c4ccc(O)cc4CC[C@H]3[C@@H]1CC[C@@H]2O [Estradiol] | -5.28 | -4.93
COC1=CC(=CC(=C1)C2=CC=C3N=CC\4=C(N(C(=O)\C=C4)C5=CC(=C(C=C5)N6CCNCC6)C(F)(F)F)C3=C2)OC | -5.33 | -5.43
C[C@@]12O[C@@H](C[C@]1(O)CO)n1c3ccccc3c3c4c(c5c6ccccc6n2c5c31)CNC4=O [Lestaurtinib] | -6.33 | -5.48

SMILES | AC50 for growth inhibition (log10 M) (SB.mhdgc-1) | AC50 for growth inhibition (log10 M) (SB.msgc-1)
C=CCc1cccc(/C=N/NC(=O)CN2CCN(Cc3ccccc3)CC2)c1O [PAC-1] | -5.13 | -5.23
COc1cc([C@@H]2c3cc4c(cc3[C@H](O)[C@H]3COC(=O)[C@@H]23)OCO4)cc(OC)c1OC [Picropodophyllin] | -6.48 | -6.73
COc1cc2c(cc1OC)CN(CCc1ccc(NC(=O)c3cc(OC)c(OC)cc3NC(=O)c3cnc4ccccc4c3)cc1)CC2 [Tariquidar] | -5.03 | -5.08
CC/C(=C(/CC)c1ccc(O)cc1)c1ccc(O)cc1 [Diethylstilbestrol] | -5.53 | -4.83
COC1=CC=C(C=C1O)C/2=C/C(=O)C3=C(O2)C=C(O[C@@H]4O[C@H](CO[C@@H]5O[C@@H](C)[C@H](O)[C@@H](O)[C@H]5O)[C@@H](O)[C@H](O)[C@H]4O)C=C3O [Diosmin] | -5.03 | -5.58
Cc1nn(Cc2ccccc2Cl)c(C)c1CN(C)CC(O)COc1ccc(Cl)cc1 (stereo unspecified) | -4.78 | -4.73
Cc1cnc(NC(=O)Nc2cc(Br)c(C)cc2OC[C@@H]2CNCCO2)cn1 [Rabusertib] | -4.88 | -5.88
COc1ccccc1[C@H](c1cccc2ccccc12)[C@@](C)(C#N)C(=O)N1CCC(c2cccc(C(F)(F)F)c2)CC1 | -5.18 | -5.48
Cc1c(N)nc([C@H](CC(N)=O)NC[C@@H](N)C(N)=O)nc1C(=O)N[C@H](C(=O)N[C@@H](C)[C@H](O)[C@@H](C)C(=O)N[C@@H](C(=O)NCCc1nc(-c2nc(C(=O)NCCC[S+](C)C)cs2)cs1)[C@@H](C)O)C(O[C@H]1O[C@H](CO)[C@H](O)[C@@H](O)[C@H]1O[C@H]1O[C@H](CO)[C@@H](O)[C@H](OC(N)=O)[C@@H]1O)c1c[nH]cn1 (stereo partly specified) [Bleomycin sulfate] | -5.88 | -5.43
CN1CC/C(CC1)=C3\c4ccccc4CC(=O)c2sccc23 [Ketotifen] | -5.53 | -4.78
CC(C)Oc1ccc(C(=O)N[C@H](CNC(=O)CN(C)C)Cc2ccc(-c3cn4cccc([C@H](C)O)c4n3)cc2)cc1Cl | -5.18 | -6.63
O=C(c1ccc(OCCN2CCCCC2)cc1)c1c(-c2ccc(O)cc2)sc2cc(O)ccc12 [Raloxifene hydrochloride] | -6.88 | -5.18
Oc1ccc(-c2ccc(-c3cc(Nc4cccc(CNC5CC5)c4)[nH]n3)cc2)c(O)c1 [TCS-2312] | -6.28 | -5.03
CN(C)C1=CC=C(C=C1)C(C2=CC=C(C=C2)N(C)C)=C/3\C=C/C(/C=C3)=[N+](C)C [Methylrosaniline chloride] | -6.03 | -5.78
Cc1cn(-c2cc(NC(=O)c3ccc(C)c(Nc4nccc(-c5cccnc5)n4)c3)cc(C(F)(F)F)c2)cn1 [Nilotinib] | -5.18 | -4.83
COc1cc(OC)c(/C=C/[S+](=O)([O-])Cc2ccc(OC)c(NCC(=O)[O][Na])c2)c(OC)c1 | -6.03 | -6.33
Cc1cccc(-c2[nH]c(C(C)(C)C)nc2-c2ccc3nccnc3c2)n1 | -4.83 | -5.73
CC(C)C[C@@H](C=O)NC(=O)[C@H](CC(C)C)NC(=O)[C@H](CC(C)C)NC(=O)OCc1ccccc1 [MG-132] | -6.33 | -6.08
CNCCCC12CCC(c3ccccc31)c1ccccc12 [Maprotiline hydrochloride] | -4.78 | -4.63
CC(C)NCC(O)c1ccc(O)c(O)c1 (stereo unspecified) [Isoprenaline hydrochloride] | -5.43 | -4.83
CNC(=O)c1nn(C)c2c1C(C)(C)Cc1cnc(Nc3ccc(N4CCN(C)CC4)cc3)nc1-2 [Milciclib] | -5.93 | -5.88
